Experimental data taken from article PMC7179167 (Molecules, 2020).
In brackets after ≈: the same amount, converted by molar mass. Where two headings read alike, the source gives them in different places.

Legend:
[1] = system: normal skin fibroblast cells (BJ-1); experiment: MTT cytotoxicity assay, normal skin fibroblast BJ-1; format: cell-based; details: Homo sapiens, 48 h, read-out: Growth Inhibition (%) BJ-1
Method: (§5) MCF-7 (human breast cancer), HCT-116 (human colon cancer) and HepG2 (human liver cancer) cell lines were obtained from Karolinska Institute, Stockholm, Sweden. All cells were maintained in RPMI 1640 medium. The media were supplemented with 10% heat-inactivated fetal bovine serum plus 1% antibiotic-antimycoticmixture (10,000 U/mL of potassium penicillin, 10,000 μg/mL of streptomycin sulfate, 25 μg/mL of amphotericin B and 1% of L glutamine (Biowest, USA)). BJ-1 of a human skin fibroblast derived from normal foreskin was obtained from ATCC® CRL-2522™ as a frozen ampoule with about 1 × 10^6 cells per 1 ml volume. BJ-1 was maintained in MEM with 2 mM of L-glutamine and Earle’s salts medium.
(§6) Cell viability was studied using the MTT 3-(4,5-dimethylthiazol-2-yl)-2,5-diphenyl-tetrazolium bromide (Bio Basic Canada Inc. Toronto, Canada) assay [33]. The steps were executed in a sterile laminar air flow cabinet biosafety class II level (Baker, SG403INT; Sanford, ME, USA). All incubations were carried out at 37 °C in a 5% CO2 incubator under a humidified atmosphere of 95% (Sheldon, TC2323; Cornelius, OR, USA). Cells were seeded into 96-well microtiter plastic plates at a concentration of (10^4 cells/well) and allowed to adhere for 24 h. The medium was aspirated and then added to the cells with the test compounds 11a–c, 12a–c, 13a–i, 14a–i and 15a,b at a single dose of 100 μg/mL in DMSO. After incubation of the medium for 48 h, 40 μL of MTT salt (2.5 μg/mL) was added to each well and then incubated for an additional 4 h. To stop the reaction and dissolve any formed formazan crystals, 200 μL of 10% sodium dodecyl sulfate (SDS) were added to each well and incubated overnight at 37 °C. The amount of formazan product was measured at 595 nm with a reference wavelength of 690 nm as a background using a microplate reader (Bio-Rad Laboratories, model 3350, California, USA). For the untreated cells (negative control), the medium was added instead of the tested compounds. […] Dimethylsulfoxide (DMSO) was the vehicle used for dissolution of the testing compound, and its final concentration on the cells was less than 0.2%. At the same dilution, the solvent concentration was the same for all drugs and between the control and drug treatments.

[2] = system: HepG-2 (human liver cancer); experiment: MTT cytotoxicity assay, HepG-2; format: cell-based
Method: as §5, §6

caspase-3 [3] = experiment: Caspase-3 colorimetric assay in MCF-7 cells; format: cell-based, human
Text: (§1) The promising antiproliferative results reported for compounds 11a, 11b, 12a, 12b and 13c against cell lines under study have prompted us to investigate the mechanism of cell death induced by these compounds. Apoptosis induction was examined in both MCF-7 and HCT-116 cancer cells by assaying the level of its key protein markers, namely: proapoptotic (p53, Bcl 2-associated X, Bax and caspases3) and antiapoptotic (B-cell lymphoma-2, Bcl-2). MCF-7 and HCT-116 cells undergoing apoptosis was detected by use of the ELISA technique. Protein marker levels were quantified according to Bradford assay.
(§2) Briefly, cells ([…] and HCT) were seeded at a concentration of 1.2–1.8 × 10^3 cells/well in 6-well plates. After 48-h treatment, the collected cells were lysed and centrifuged at 10,000 rpm for 20 min at 4 °C. The protein concentration was measured in the supernatant by Bradford protein assay. Volume containing […] of total protein was incubated with […] of caspase substrate in […] of the reaction buffer at 37 °C for 1 h in the dark. Caspase-3 activity was determined by a microplate reader at 405 nm using a caspase-3 colorimetric assay kit (Abcam) according to the manufacturer’s instructions. In vitro protein level quantitative measurement of apoptotic marker p53, Bcl-2-associated X (Bax) and antiapoptotic marker B-cell lymphoma-2 (Bcl-2) in cell lysate were assessed by Enzyme-Linked Immunosorbent Assay Simple Step ELISA® (ab199080, ab119506 and ab171571; Abcam) according to the manufacturer’s instructions.

Bcl-2 [4] = experiment: Bcl-2 ELISA in MCF-7 cells; format: cell-based, human; details: MCF-7 cells treated at IC50 concentration; control 25.13 ± 3.45; mean ± SD
Text: as §1, §2

Bax [5] = experiment: Bax ELISA in MCF-7 cells; format: cell-based, human; details: MCF-7 cells treated at IC50 concentration; control 39.56 ± 4.56; mean ± SD
Text: as §1, §2

[6] = system: MCF-7 (human breast cancer); experiment: MTT cytotoxicity assay, MCF-7; format: cell-based; details: for inhibition at 100 µg/mL: MCF7, 100 µg/ml, 48 h, read-out: Growth Inhibition (%) MCF-7
Method: as §5, §6

Bax [7] = experiment: Bax ELISA in HCT-116 cells; format: cell-based, human; details: HCT-116 cells treated at IC50 concentration; control 118.54 ± 0.83; mean ± SD
Text: as §1, §2

p53 [8] = experiment: p53 ELISA in HCT-116 cells; format: cell-based, human; details: HCT-116 cells treated at IC50 concentration; control 1.68 ± 0.06; mean ± SD
Text: as §1, §2

caspase-3 [9] = experiment: Caspase-3 colorimetric assay in HCT-116 cells; format: cell-based, human; details: HCT-116 cells treated at IC50 concentration; control 13.60 ± 2.45; mean ± SD
Text: as §1, §2

p53 [10] = experiment: p53 ELISA in MCF-7 cells; format: cell-based, human; details: MCF-7 cells treated at IC50 concentration; control 4.18 ± 0.58; mean ± SD
Text: as §1, §2

[11] = system: HCT-116 (human colon cancer); experiment: MTT cytotoxicity assay, HCT-116; format: cell-based; details: Homo sapiens; for inhibition at 100 µg/mL: HCT-116, 100 µg/ml, 48 h, read-out: Growth Inhibition (%) HCT-116
Method: as §5, §6

[12] = DPPH free radical scavenging assay; format: biochemical; details: concentration of 20µg/l, mean ± SD of three experiments
Method: Antioxidant activity of the newly synthesized 13a–i, 14a–i, 11a–c and 12a–c were assessed in terms of hydrogen-donating or radical-scavenging ability via the stable free radical 1,1-diphenyl-2-picrylhydrazyl (DPPH) using ascorbic acid as a reference at a concentration of […].
The free radical scavenging activity (RSA) was assessed spectrophotometically at 517 nm via decoloration of the solution of the DPPH (1,1-diphenyl-2-picrylhydrazyl) radical according to Brand-Williams et al. 1995 [32]. DPPH solution was prepared by dissolving of 20 mg of DPPH in one liter of dimethylsulphoxide (DMSO). A freshly prepared DPPH solution was used for the assay. Each of the tested compounds 11a–c, 12a–c, 13a–i, 14a–i and 15a,b were dissolved in DMSO (1mg/mL). A volume of […] of a DMSO stock solution of the test compounds was added to 2 mL of freshly prepared DPPH in DMSO solution. The mixtures were shaken in a vortex (2500 rpm) for 1 min and then left to stand for 15, 30, 45 and 60 min in the dark room. The absorbance was measured at 517 nm against blank using UV visible spectrophotometer 2401 PC (Shimadzu, Kyoto, Japan). Lower absorbance of the reaction mixture indicated higher free radical scavenging activity was analyzed from the graph plots of the inhibition percentage against the compound concentration. The experiment was carried out in triplicate and averaged. The scavenging activity was calculated according to the following formula:Scavenging ability (%) = (A517 of control - A517of sample / A 517 of control) ×100(1)

Bcl-2 [13] = experiment: Bcl-2 ELISA in HCT-116 cells; format: cell-based, human; details: HCT-116 cells treated at IC50 concentration; control 23.56 ± 3.56; mean ± SD
Text: as §1, §2

C. albicans (ATCC 10231) = experiment: Disk diffusion antimicrobial test, C. albicans; format: cell-based, Candida albicans; details: yeast, 20 mg per disc (title), concentration 20 µg (footnote); for zone of inhibition at 20 µg/disc: Candida albicans, ATCC10231, disk diffusion
Method: (§3) The newly synthesized compounds were chosen to be evaluated in vitro towards a variety of pathogenic microorganisms; Gram-positive bacteria: S. aureus (ATCC 6538) and B. subtilis (ATCC 6633); Gram-negative bacteria: P. areuginosa (ATCC 27853) and E. coli (DSMZ 1058); yeast: C. albicans (ATCC 10231) and S. cerevisiae (ATCC 9080) and fungi: A. niger (NRRL A-326) using the disk diffusion method at a single dose of 20 µl. The results are shown in Table 1 as the growth inhibition zone (mm).
(§4) The antimicrobial activity of target compounds were evaluated to be in vitro against a variety of pathogenic microorganisms, namely Staphylococcus aureus (ATCC 6538), Bacillus subtilis (ATCC 6633) (Gram-positive bacteria), Pseudomonas areuginosa (ATCC 27853), Escherichia coli (DSMZ 1058) (Gram-negative bacteria), Candida albicans (ATCC 10231), Saccharomyces cerevisiae (ATCC 9080) (Yeast) and Aspergillus niger (NRRL A-326) (Fungi) using the disk diffusion method at a single dose of 20 µg. The microorganisms were served and obtained from the Microbial Biotechnology Department, National Research Center, Giza, Egypt. Amphotericin, amoxicillin and ciprofloxacin were used as reference drugs (Oxoid™ Disks). The tested compounds 11a–c, 12a–c, 13a–i, 14a–i and 15a,b were dissolved in dimethylsulphoxide (DMSO) at a concentration of 1 mg/mL. Aliquots of 20 μl were soaked on filter paper discs (6 mm) and dried at room temperature under sterilized conditions. The paper discs were placed on inoculated agar plats and then incubated for 24 h at 37 °C for bacterial strains and after 48–72 h incubation at 30 °C for fungi. Both bacterial and yeast strains were grown on nutrient agar medium (g/l): beef extract, 3; peptone, 10 and agar, 20 at pH of 7.2. The fungal strain was grown on Czapek-Dox medium (g/l): sucrose, 30; NaNO3, 3; MgSO4.7H2O, 0.5l; KCl, 0.5; FeSO4, 0.01; K2HPO4, 1 and agar, 20 at pH of 6.0.

[14] = system: S. cerevisiae (ATCC 9080); experiment: Disk diffusion antimicrobial test, S. cerevisiae; format: cell-based; details: Saccharomyces cerevisiae, ATCC9080, yeast, 20 mg per disc (title), concentration 20 µg (footnote)
Method: as §3, §4

B. subtilis (ATCC 6633) = experiment: Disk diffusion antimicrobial test, B. subtilis; format: cell-based, Bacillus subtilis; details: 20 mg per disc (title), concentration 20 µg (footnote); for zone of inhibition at 20 µg/disc: Bacillus subtilis, ATCC6633, Gram-positive
Method: as §3, §4

[15] = system: P. aeruginosa (ATCC 27853); experiment: Disk diffusion antimicrobial test, P. aeruginosa; format: cell-based, Pseudomonas areuginosa; details: Pseudomonas aeruginosa, ATCC27853, Gram-negative, 20 mg per disc (title), concentration 20 µg (footnote)
Method: as §3, §4

S. aureus (ATCC 6538) = experiment: Disk diffusion antimicrobial test, S. aureus; format: cell-based, Staphylococcus aureus; details: 20 mg per disc (title), concentration 20 µg (footnote); for zone of inhibition at 20 µg/disc: Staphylococcus aureus, ATCC6538, Gram-positive
Method: as §3, §4

A. niger (NRRL A-326) = experiment: Disk diffusion antimicrobial test, A. niger; format: cell-based; details: Aspergillus niger, fungi, 20 mg per disc (title), concentration 20 µg (footnote)
Method: as §3, §4

[16] = 15 min, read-out: Scavenging Activity (%) on DPPH radicals at 15 min
[17] = 30 min, read-out: Scavenging Activity (%) on DPPH radicals at 30 min
[18] = 45 min, read-out: Scavenging Activity (%) on DPPH radicals at 45 min
[19] = 60 min, read-out: Scavenging Activity (%) on DPPH radicals at 60 min

| Molecule | inhibition at 100 µg/mL [1] | inhibition at 100 µg/mL [6] | inhibition at 100 µg/mL [11] | inhibition [12, 16] | inhibition [12, 17] | inhibition [12, 18] | inhibition [12, 19] | zone of inhibition at 20 µg/disc (C. albicans (ATCC 10231)) | zone of inhibition at 20 µg/disc [14] | zone of inhibition at 20 µg/disc (B. subtilis (ATCC 6633)) | zone of inhibition at 20 µg/disc [15] | zone of inhibition at 20 µg/disc (S. aureus (ATCC 6538)) | further results |
| --- | --- | --- | --- | --- | --- | --- | --- | --- | --- | --- | --- | --- | --- |
| O=C1Nc2ccccc2C12CC(c1cn(Cc3ccccc3)c3ccccc13)=NN2 (centres unmarked) [Compound 13c, 5’-(N-Benzyl-1H-indol-3-yl)-2’,4’-dihydrospiro(indoline-3,3’-pyrazol)-2-one] | 5.1% | 97.8% | 97.9% | 14 ± 1.36% | 21 ± 1.26% | 24 ± 1.51% | 35.1 ± 1.61% |  |  |  |  |  | inhibition at 100 µg/mL ([2]; HepG2, 100 µg/ml, 48 h, read-out: Growth Inhibition (%) HepG-2): 90.9%; IC50 ([2]; HepG2, 48 h post-treatment): 27 mg/L (≈ 68.8 µM); Caspase-3 Activity % (caspase-3 [3]; MCF-7 cells treated at IC50 concentration, control 10.2 ± 2.84, mean ± SD): 39.07 ± 4.97%; Elevation of active caspase-3 protein levels compared to the control (caspase-3 [3]; MCF-7 cells, IC50 concentration): ~3.8 folds; Bcl-2 (ng/50 mg Protein) (Bcl-2 [4]): 44.5 ± 4.56 ng/50 mg Protein; Bax (pg/50 mg Protein) (Bax [5]): 88.34 ± 3.79 pg/50 mg Protein; IC50 ([6]; MCF7, 48 h post-treatment): 24.1 mg/L (≈ 61.4 µM); Bax (pg/50 mg Protein) (Bax [7]): 123.45 ±7.45 pg/50 mg Protein; p53 (pg/50 mg Protein) (p53 [8]): 2.34 ± 0.95 pg/50 mg Protein; Caspase-3 Activity % (caspase-3 [9]): 47.32 ± 6.32%; p53 (Pg/50 mg Protein) (p53 [10]): 7.34 ± 1.5 Pg/50 mg Protein; IC50 ([11]; HCT-116, 48 h, 48 h post-treatment): 14.7 mg/L (≈ 37.5 µM); Bcl-2 (ng/50 mg Protein) (Bcl-2 [13]): 57.45 ± 6.45 ng/50 mg Protein |
| CCOc1cc2occc2c(OC)c1C1=NNC2(C1)C(=O)Nc1ccccc12 (centres unmarked) [Compound 11c, 5’-(6-Ethoxy-4-methoxy-benzofuran-5-yl)-2’,4’-dihydrospiro(indoline-3,3’-pyrazol)-2-one] | 45.2% | 0% | 30.2% | 40.6 ± 1.28% | 40.6 ± 1.81% | 40.6 ± 1.67% | 40.6 ± 1.35% | 25 mm | 25 mm | 10 mm | 10 mm |  | melting point: 137 to 139 °C |
| 3-(6-Hydroxy-4,6-dimethoxybenzofuran-5-yl)quinoline-4-carboxylic acid [Compound 15b] |  |  |  | 23.6 ± 1.36% | 32.7 ± 1.13% | 39.2 ± 1.29% | 47.5% |  |  |  |  |  | Inhibition Zone (mm), C. albicans (ATCC 10231) (C. albicans (ATCC 10231); disk diffusion): 8 mm; Inhibition Zone (mm), S. aureus (ATCC 6538) (S. aureus (ATCC 6538); Gram-positive): 8 mm; Inhibition Zone (mm), B. subtilis (ATCC 6633) (B. subtilis (ATCC 6633); Gram-positive): 10 mm |
| CC1(C)S[C@@H]2[C@H](NC(=O)[C@H](N)c3ccc(O)cc3)C(=O)N2[C@H]1C(=O)O [Amoxicillin, amoxicillin, reference compound] |  |  |  |  |  |  |  |  |  | 28.4 mm |  | 25.6 mm |  |
| C[C@@H]1[C@H](O)[C@@H](C)/C=C/C=C/C=C/C=C/C=C/C=C/C=C/[C@H](O[C@@H]2O[C@H](C)[C@@H](O)[C@H](N)[C@@H]2O)C[C@@H]2O[C@](O)(C[C@@H](O)C[C@@H](O)[C@H](O)CC[C@@H](O)C[C@@H](O)CC(=O)O[C@H]1C)C[C@H](O)[C@H]2C(=O)O [Amphotericin B, amphotericin B, reference compound] |  |  |  |  |  |  |  | 23.5 mm | 23.5 mm |  |  |  | zone of inhibition at 20 µg/disc (A. niger (NRRL A-326)): 26.7 mm |
| CCOc1c(C2=NNC3(C2)C(=O)Nc2ccccc23)c(OC)c2ccoc2c1OC (centres unmarked) [Compound 12c, 5’-(6-Ethoxy-4,7-dimethoxy-benzofuran-5-yl)-2’,4’-dihydrospiro(indoline-3,3’-pyrazol)-2-one] | 62.3% | 6.3% | 12.4% | 9.76 ± 1.76% | 10.2 ± 1.26% | 11.4 ± 1.53% | 14 ± 1.55% | 10 mm | 10 mm | 18 mm | 20 mm | 10 mm |  |
